Laboratory results: patent US20210179680A1, “POLYPEPTIDE, DERIVATIVES THEREOF, AND APPLICATION THEREOF IN PREPARATION OF DRUGS HAVING RESISTANCE TO PULMONARY FIBROSIS” (priority 2016, published 2021)
Bridge positions count the residues as written; N and C are the ends. Square brackets hold non-standard residues; d marks the D form. Peptide text beside a SMILES is read from it. S5 = C=CCCC[C@](C)(N)C(=O)O

Legend:
Type in all cases: in vivo, C57BL/6 mice
[1] = tested on: mice with bleomycin-induced pulmonary fibrosis; experiment: Lung weight index in mice with pulmonary fibrosis; conditions: 2 mg/kg i.p., after 28 days, lung weight (mg) divided by body weight (g)
Protocol: (§1) Male C57BL/6 mice were fasted overnight, then anesthetized with 45 mg/kg sodium pentobarbital by injection intraperitoneally (i.p.), and intratracheally injected with bleomycin at a dose of 3 U/kg. The specific operation steps are as follows: cut the neck skin of the mouse with as little trauma as possible, expose the trachea with the assistance of elbow ophthalmic forceps, puncture the trachea and inject about 50 μL of bleomycin into the trachea with a microsyringe, rotate the mouse quickly and stand it upright for 5 minutes in order to make bleomycin evenly enter the left and right lobe, thereby constructing an animal model. The whole operation was performed at a surgical table at about […]. Mice in the sham operation group were intratracheally injected with an equal amount of physiological saline for injection.
Pulmonary fibrosis model was prepared according to the method described in Example 2, and administered in groups according to Table 3. After 28 days, the lungs of the mice were finely stripped and weighed, and a lung weight index was obtained from dividing the lung weight (mg) by the body weight (g) of the mice. […] In FIG. 7, “##” represents that P value is less than 0.01 when the lung weight index of administration group was compared with that of the sham operation group; “*” represents that P value is less than 0.05 when the lung weight index of administration group was compared with that of the bleomycin group; “**” represents that P value is less than 0.01 when the lung weight index of administration group was compared with that of bleomycin group.
Pulmonary fibrosis models were made according to the method described in Example 2 and administered in groups according to Table 9. After 28 days, the lungs of the mice were finely stripped and weighed, and the lung weight (mg) was divided by the body weight (g) of the mice to obtain a lung weight index. […] In FIG. 13, “##” represents that P value is less than 0.01 when the lung weight index of the administration groups were compared with that of the sham operation group; “*” represents that P value is less than 0.05 and “**” represents that P value is less than 0.01 when the lung weight index of the administration groups were compared with bleomycin group.

[2] = tested on: mice with bleomycin-induced pulmonary fibrosis; experiment: Survival rate of mice with bleomycin-induced pulmonary fibrosis; conditions: twice a week
Protocol: as §1
The animal model with pulmonary fibrosis was prepared according to the method described in Example 2. The peptide therapy was started from the 10th day after modeling (the treatment groups are shown in Table 3), and the time was calculated from the 10th day after modeling to count the mortality rate. The death situation of each group of experimental animals was counted and calculated daily. […] The survival rate is the percentage of the number of mice that survived accounting for the number of mice in the whole group. Results are shown in FIG. 6-1, FIG. 6-2 and Table 4. […] In FIG. 6-1 and FIG. 6-2, “##” represents that P value is less than 0.01 when the survival rate of administration group was compared with that of the sham operation group; “*” represents that P value is less than 0.05 when the survival rate of administration group was compared with that of the bleomycin group; “**” represents that P value is less than 0.01 when the survival rate of administration group was compared with that of bleomycin group; and “i.p.” refers to intraperitoneal injection.
The animal model of pulmonary fibrosis was prepared according to the method described in Example 2. The polypeptide treatment was started from the 10th day after modeling (the treatment groups are shown in Table 9), and the time was calculated from the 10th day after modeling to count the mortality rate. The mortality rate of each group of experimental animals was recorded and calculated daily. If none of the animals in a group died, the survival rate of the group is 100%. If all the animals in a group died, the survival rate is 0%. […] In FIG. 12, “##” represents that P value is less than 0.01 when the survival rate of the administration groups were compared with that of the sham operation group; “*” represents that P value is less than 0.05 and “**” represents that P value is less than 0.01 when the survival rate of the administration groups were compared with bleomycin group.

[3] = tested on: mice with bleomycin-induced pulmonary fibrosis; experiment: Hydroxyproline content in lung of mice with pulmonary fibrosis; conditions: 2 mg/kg i.p.; for hydroxyproline content (μg/mg protein): left lung lobes, chloramine-T method
Protocol: as §1
(§2) Hydroxyproline accounts for 13.4% (w/w) of collagen, and extremely small amount of elastin, while it is absent in other proteins. […] Pulmonary fibrosis models were prepared according to the method described in Example 2 and administered in groups according to Table 3. The content of hydroxyproline in the lobes of left lung of the animals was measured 28 days later, and the condition of pulmonary fibrosis was evaluated.
The specific method is as follows: the mice in the animal model prepared in Example 2 was feed in a SPF animal room and treated with polypeptide according to the dosing schedule of Table 3, and all left lobes of lung of the experimental animal was taken on the 21st day after the animal model was constructed and the wet weight was recorded. Then 10% (w/w) tissue homogenate was prepared by ultrasonic homogenization using physiological saline. About 150 μL of homogenate supernatant was taken, and 500 μL of alkali hydrolysate was added (provided by Hydroxyproline alkaline hydrolysis kit of Nanjing Jiancheng Bioengineering Technology Co., Ltd.). After vortex mixing, the mixture was treated with alkaline hydrolysis for 40 min under conditions of 120° C., 0.1 Kpa. After adjusting the pH value, the volume was held constant, and the supernatant was taken after performing activated carbon treatment. The hydroxyproline was determined according to the chloramine-T method (the method of the present example refers to the instruction provided with kit, which was purchased from Nanjing Jiancheng Bioengineering Technology Co., Ltd.). […] In FIG. 10, “##” represents that P value is less than 0.01 when comparing the content of hydroxyproline in the administration group with that in the sham operation group; and “*” represents that P value is less than 0.05 and“**” represents that P value is less than 0.01 when comparing the content of hydroxyproline in the administration group with that in bleomycin group.
as §2, with “collagen, and accounts for extremely small” for “collagen, and extremely small”, “in the all lobes of” for “in the lobes of”
The specific method is as follows: the mice in the animal model prepared in Example 2 was feed in an SPF animal room and treated with polypeptide according to the dosing schedule of Table 3, and all the left lobes of lung of the experimental animal was taken on the 21st day after the animal model was constructed and the wet weight was recorded. Then 10% (w/w) tissue homogenate was prepared by ultrasonic homogenization using physiological saline. About 150 μL of homogenate supernatant was taken, and 500 μL of alkali hydrolysate was added (provided by Hydroxyproline alkaline hydrolysis kit of Nanjing Jiancheng Bioengineering Technology Co., Ltd.). After vortex mixing, the mixture was treated with alkaline hydrolysis for 40 min under conditions of 120° C., 0.1 Kpa. […]

[4] = Table 3 groups: 2 mg/kg i.p., 10th to 28th day after modeling
[5] = Table 9 groups (S19-S21): 2 mg/kg i.p.

Molecule	Lung weight index ([1]; Table 3 groups)	Survival rate (%) 7 days [2, 4] [%]	Survival rate (%) 14 days [2, 4] [%]	Survival rate (%) 21 days [2, 4] [%]	Survival rate (%) 28 days [2, 4] [%]	hydroxyproline content (μg/mg protein) ([3]; Table 3 groups)	Lung weight index ([1]; Table 9 groups)	Survival rate (%) 7 days ([2]; Table 9 groups (S19-S21): 2 mg/kg i.p., 10th to 28th day after modeling) [%]	Survival rate (%) 14 days [2, 5] [%]	Survival rate (%) 21 days [2, 5] [%]	Survival rate (%) 28 days [2, 5] [%]	hydroxyproline content (μg/mg protein) ([3]; S19-S21 groups)	content of hydroxyproline in the lungs (in words) ([3]; S19-S21 groups, versus bleomycin group)
CSCC[C@H](NC(=O)[C@H](CC(C)C)NC(=O)[C@@H](N)Cc1c[nH]cn1)C(=O)N[C@@H](C)C(=O)N[C@@H](CS)C(=O)N[C@@H](Cc1ccccc1)C(=O)N[C@@]1(C)CCCC=CCCC[C@@](C)(C(=O)N[C@@H](CC(C)C)C(=O)N[C@@H](CCCCN)C(=O)N[C@@H](CCCCN)C(=O)N[C@@H](CCCNC(=N)N)C(=O)O)NC(=O)[C@H](CCCCN)NC(=O)[C@H](C)NC(=O)[C@H](CS)NC1=O [S7, His-Leu-Met-Ala-Cys-Phe-S5-Cys-Ala-Lys-S5-Leu-Lys-Lys-Arg] (H-HLMACF[S5]CAK[S5]LKKR-OH; staple 7-11; N-terminus and C-terminus assumed)	7.675	100	100	93.33	93.33	0.655	–	–	–	–	–	–	–
CSCC[C@H](NC(=O)[C@H](CC(C)C)NC(=O)[C@@H](N)Cc1c[nH]cn1)C(=O)N[C@@]1(C)CCCC=CCCC[C@@](C)(C(=O)N[C@@H](C)C(=O)N[C@@H](CCCCN)C(=O)N[C@@H](CCCCN)C(=O)N[C@@H](CC(C)C)C(=O)N[C@@H](CCCCN)C(=O)N[C@@H](CCCCN)C(=O)N[C@@H](CCCNC(=N)N)C(=O)O)NC(=O)[C@H]([C@@H](C)O)NC(=O)[C@H](Cc2ccccc2)NC(=O)[C@H](CS)NC1=O [S4, His-Leu-Met-S5-Cys-Phe-Thr-S5-Ala-Lys-Lys-Leu-Lys-Lys-Arg] (H-HLM[S5]CFT[S5]AKKLKKR-OH; staple 4-8; N-terminus and C-terminus assumed)	8.925	100	86.67	80	80	0.65	–	–	–	–	–	–	–
S20: chimeric polypeptide TAT-MR2, amino acid sequence SEQ ID NO: 20 (YGRKKRRQRRRGGHLMACFTCAKKLKKR; chimeric polypeptide TAT-MR2 S20)	–	–	–	–	–	–	10.0625	100	91.67	75	75	0.7443	reduce hydroxyproline content
